The values that follow come from patent US12678503B2, “Water-activated mucoadhesive compositions and methods of delivering biologically active substances” (The Brigham and Women's Hospital, Inc., priority 2019, dated 2026).

Data set [1] can be described thus: Aluminum release in simulated GI fluids. It is filed as physicochemical. As to conditions: simulated gastric fluid (SGF, pH 1.0).
The nature of data set [2]: Film thickness of hydrated paste on mucus-coated cellulose nitrate membrane. It is filed as physicochemical. The method, then:
Five hundred milligrams of AF-LuCI (excess) was added onto mucus-coated cellulose nitrate membrane (disk shape with 2 cm diameter) and DDW (pH 5.5), SGF (pH 1.0), or SIF (pH 6.5) was added immediately. After AF-LuCI becomes a paste and flow to form a layer (3-5 minutes), supernatant was removed and the paste-coated membrane was quickly frozen in −80° C. freezer to measure the thickness. The thickness of the mucus-coated cellulose nitrate membrane without AF-LuCI was separately measured as a baseline.

Data set [3] in a line: Integrative barrier property test, glucose permeation in Franz-cell system. The procedure: To examine the barrier properties of pastes formed from the new hydratable compositions in vitro, a mucin-coated membrane was prepared to mimic the mucus surface of the intestine. Specifically, a cellulose nitrate membrane (pore size: 0.2 μm, Whatman, Germany) was incubated in a 3% w/v porcine stomach mucin (Sigma Aldrich, USA) solution in PBS (pH 7.4) and gently shaken for 2 hours at room temperature. The membrane was washed with distilled deionized water (DDW, pH 5.5) to remove the excess mucin solution. The mucin-coated membranes were used within 1 hour following preparation.
To measure the thickness of the mucin layer, the mucin-coated membrane was lyophilized and imaged using scanning electron microscope (SEM) and the thickness of randomly selected positions was examined (average mucin layer thickness: ~100 μm). To test the nutrient barrier properties, 10 mg of sucralfate or AF-LuCI was added evenly to a mucin-coated membrane and vertically tilted for 1 minute. […]
The permeation tests were performed in triplicate for each material. The glucose concentration was measured using high performance liquid chromatography (HPLC, Agilent, USA) with an analytical C18 column (Zorbax Eclipse XDB-C18, Agilent). […]

Data set [4] in a line: Degree of polymerization of PAC by titration. It is filed as physicochemical. Particulars: native sucralfate. The procedure:
Experiments were performed to determine the degree of polymerization in AF-LuCI by using the titration-based methods as described in Nail, S. L., White, J. L. & Hem, S. L. Structure of Aluminum Hydroxide Gel I. Initial Precipitate. Journal of Pharmaceutical Sciences 65, 1188-1191 (1976); and Hem, J. D. & Roberson, C. E. Form and stability of aluminum hydroxide complexes in dilute solution. Geol Surv Water-Supply Pap (US); (United States) (1967). The degree of polymerization of PACs in AF-LuCI and sucralfate molecule was determined using titration method based on the reversible protonation of hydroxo linkages in the PAC backbone. Approximately 10 mg of AF-LuCI were treated with 0.1N, 0.2N, 0.3N, 0.4N and 0.5N HCl solutions in different tubes. The samples were vortexed for 5 seconds followed by 1-hour incubation. The supernatant of each sample was then collected and the pH was measured using a pH meter. The same procedures were performed with sucralfate. The pH of the HCl solutions was measured as the control group and the difference between the control and the treated groups was calculated. The difference in pH corresponds to the proton consumption and the amount of hydroxo linkages that were then used to calculate the number of aluminum per molecule.

Data set [5] in a line: Dissolution in NaCl solutions. Type of data set: physicochemical. Particulars: saturated NaCl solutions (~0.35 g/ml in water). The source says:
[…] This is a characteristic behavior of liquid complex coacervate system (See Wang, Q. & Schlenoff, J. B. The Polyelectrolyte Complex/Coacervate Continuum. Macromolecules 47, 3108-3116 (2014); de Kruif, C. G., Weinbreck, F. & de Vries, R. Complex coacervation of proteins and anionic polysaccharides. Current Opinion in Colloid & Interface Science 9, 340-349 (2004); Veis, A. & Aranyi, C. PHASE SEPARATION IN POLYELECTROLYTE SYSTEMS. I. COMPLEX COACERVATES OF GELATIN. J. Phys. Chem. 64, 1203-1210 (1960)).

The test system of a further data set is Sprague-Dawley (SD) rats. The data set is described as follows: microCT imaging of coating in the GI tract. Type of data set: in vivo, rat. Particulars: gavaged to SD rats. The method, then: Sprague-Dawley (SD) rats were gavaged into the stomach with hydrated AF-LuCI pastes and imaged using micro-computed tomography (microCT). AF-LuCI pastes could be visualized on gastro-intestinal tissues without additional contrast agents owing to the presence of aluminum. For these experiments, rats were fasted overnight and gavaged directly into the stomach with 450 mg/kg rat of AF-LuCI paste hydrated in 0.9 w/v % normal saline solution. After 1 hr and 5 hr, the rats were anesthetized using isoflurane and imaged using microCT. […] FIG. 18A is a coronal plane view of SD rats gavaged with AF-LuCI 1 hr before the imaging. AF-LuCI formed a layer in stomach, duodenum and proximal intestine. FIGS. 18B and 18C are 3-dimentional views of SD rats gavaged with AF-LuCI (FIG. 18B) 1 hr and (FIG. 18C) 5 hr before the microCT imaging. AF-LuCI is attached on stomach, duodenum and proximal intestine at least for 5 hrs after gavage while sucralfate only formed sparsely scattered aggregates on the healthy mucosa

In the next data set the test system is SD rats. The data set is described as follows: OGTT with different viscosity, dose and dosing schedule (Example 12). Type of data set: in vivo, rat. As to conditions: normal SD rats. The method, then: Experiments were then performed to assess if the AF-LuCI coating could lower glucose response. To evaluate the in vivo effect of the barrier coating from AF-LuCI on postprandial glucose response, SD rats were pre-gavaged with the AF-LuCI pastes and standard OGTT was performed. AF-LuCI at different dosage but also different viscosity. It was hypothesized that low viscosity product may lead to barrier formation in larger area and earlier duodenal coating (onset of action). For these studies, rats were fasted overnight and gavaged with AF-LuCI pastes (dose: 450-2,700 mg/kg rat; viscosity: high and low), or saline as a control. One or three hours later, glucose solution (2 g/kg rat) was gavaged and changes in serum glucose levels measured every 30 minutes over the subsequent 120 min (n=4 per arm). Tail vein blood was used to measure glucose levels using glucometer. […] The time gap between AF-LuCI administration and glucose gavage also affects the reduction of blood glucose responses differently depending on the AF-LuCI formulations (FIG. 19C). 3 hr after treatment with 450 mg/kg rat lower viscosity AF-LuCI (i.e. 5 Pa·s), the reduction in glucose response decreased to 7%. In FIG. 19, AF-LuCI fabricated using 0.4N, 0.5N, and 0.6N HCl solution and rehydrated in 0.9 w/v % normal saline is denoted as “Viscosity High”, “Viscosity Mid”, and “Viscosity Low”, respectively.

The conditions of data set [6]: cited from earlier work.

Turning to sucralfate, in data set [1], the release of aluminum is 15 w/w % of total aluminum content. Also, the layer formation entry in data set [2] (distilled water or SIF) is “did not form any layer”. Moreover, the thickness of layer in data set [2] (only in SGF (pH 1.0)) is ~ 250 μm. For the same substance, the glucose penetration blocked in data set [3] (SGF, 10 mg on mucin-coated membrane, 120 g/L glucose, 5 minutes) was ~ 60%. Further, the glucose blocked in data set [3] (applied on mucus-coated membrane in pH 1.0, then pH 4.0) is listed as 16.5%. The “number of aluminum ions per molecule” value in data set [4] amounted to 56.1±3.0 aluminum per molecule. Moreover, the amount dissolved result in data set [5] is given as “Less than 5 w/w %”. The “layer formation in the GI tract (microCT)” value in the data set on Sprague-Dawley (SD) rats is “did not form a layer”. Besides, in the data set on SD rats, the “area under curve (AUC) in OGTT vs saline treated group” value is on record as “no significant difference”. Besides, the “aluminum content of sucralfate (USP regulation)” value in data set [6] was 15.5-18.5 w/w % of the total weight.
